Laboratory results taken from ChEMBL document CHEMBL4765313, “Synthesis, in vitro evaluation and molecular docking of a new class of indolylpropyl benzamidopiperazines as dual AChE and SERT ligands for Alzheimer's disease” (Eur J Med Chem, 2020).
Active and inactive are the calls of the source. The rule behind the calls is not given here.

Experiments:
[1] = Solubility of compound at pH 7.4 at 1 to 100 uM; assay type: physicochemical; settings: buffer, pH 7.4, 100 µM; dose 1-100 µM
Acetylcholinesterase = Acetylcholinesterase (Homo sapiens, UniProt P22303); assay: Inhibition of human plasma AChE using acetylthiocholine iodide as substrate preincubated for 15 mins followed by substrate addition and measured after 10 mins by Ellman's method; assay type: cell-free
Sequence of Acetylcholinesterase (P22303 whole entry): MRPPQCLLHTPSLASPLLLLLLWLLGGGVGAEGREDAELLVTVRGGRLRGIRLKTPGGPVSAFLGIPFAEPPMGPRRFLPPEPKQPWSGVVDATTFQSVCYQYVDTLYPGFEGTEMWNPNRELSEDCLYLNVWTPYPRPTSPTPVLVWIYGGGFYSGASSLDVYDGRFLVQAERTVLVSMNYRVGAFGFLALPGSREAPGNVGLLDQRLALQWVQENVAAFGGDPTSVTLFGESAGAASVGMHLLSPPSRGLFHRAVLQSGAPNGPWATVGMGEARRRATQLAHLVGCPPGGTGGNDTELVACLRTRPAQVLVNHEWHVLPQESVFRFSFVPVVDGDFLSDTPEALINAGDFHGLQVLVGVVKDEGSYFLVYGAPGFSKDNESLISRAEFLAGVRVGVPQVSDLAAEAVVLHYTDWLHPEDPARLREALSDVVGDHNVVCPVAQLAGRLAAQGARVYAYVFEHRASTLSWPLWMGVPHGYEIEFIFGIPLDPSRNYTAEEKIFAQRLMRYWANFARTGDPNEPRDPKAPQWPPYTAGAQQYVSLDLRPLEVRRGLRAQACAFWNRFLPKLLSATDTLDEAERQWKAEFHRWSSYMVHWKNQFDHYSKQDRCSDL

[2] = target: Sodium-dependent serotonin transporter (Homo sapiens, UniProt P31645); assay: Displacement of [3H]paroxetine from human SERT expressed in human HEK293 cells incubated for 30 mins by liquid scintillation counting analysis; assay type: cell-based
Sequence of Sodium-dependent serotonin transporter (P31645 whole entry): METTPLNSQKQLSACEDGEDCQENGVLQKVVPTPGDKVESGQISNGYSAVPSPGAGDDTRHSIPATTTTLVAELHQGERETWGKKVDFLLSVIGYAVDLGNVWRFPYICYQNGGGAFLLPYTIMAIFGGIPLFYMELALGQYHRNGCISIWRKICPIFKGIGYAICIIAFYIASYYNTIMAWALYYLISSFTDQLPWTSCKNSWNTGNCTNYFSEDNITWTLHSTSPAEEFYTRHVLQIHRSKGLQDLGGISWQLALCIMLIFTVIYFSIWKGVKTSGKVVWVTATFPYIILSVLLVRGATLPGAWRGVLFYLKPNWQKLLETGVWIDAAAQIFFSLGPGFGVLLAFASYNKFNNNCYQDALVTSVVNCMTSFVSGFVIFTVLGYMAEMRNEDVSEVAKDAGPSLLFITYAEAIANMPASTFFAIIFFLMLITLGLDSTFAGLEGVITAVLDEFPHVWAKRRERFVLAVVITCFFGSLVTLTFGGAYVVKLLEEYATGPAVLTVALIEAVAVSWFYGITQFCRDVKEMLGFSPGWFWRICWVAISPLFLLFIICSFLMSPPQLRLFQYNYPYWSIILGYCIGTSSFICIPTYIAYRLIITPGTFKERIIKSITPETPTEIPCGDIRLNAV

HEK293 = assay: Cytotoxicity against human HEK293 cells assessed as reduction in cell viability incubated for 72 hrs by MTT assay; assay type: ADME, cell-based; settings: HEK293, 72 h
SH-SY5Y = assay: Cytotoxicity against human SH-SY5Y cells assessed as reduction in cell viability incubated for 72 hrs by MTT assay; assay type: ADME, cell-based
[3] = Reduction of beta-Amyloid40 level in mouse N2a cells transfected with human APP695 at 10 uM incubated for 16 hrs by ELISA relative to control; assay type: functional
N2a [4] = assay: Decrease in APP-C99 in mouse N2a cells transfected with human APP695 by Western blot analysis; assay type: functional, cell-based
N2a [5] = assay: Effect on APP in mouse N2a cells transfected with human APP695 by Western blot analysis; assay type: functional, cell-based

SMILES	solubility [1]	IC50 (Acetylcholinesterase)	IC50 [2]	IC50 (HEK293)	IC50 (SH-SY5Y)	inhibition at 10 µM [3]	inhibition (N2a [4])	Activity (N2a [5])
COc1ccc2[nH]cc(CCCN3CCN(C(=O)CN4CCN(C(=O)c5ccccc5)CC4)CC3)c2c1	Soluble	> 50 µM	> 1000 µM	> 200 µM	> 200 µM	37%	–	–
COc1ccc2[nH]cc(CCCN3CCN(C(=O)CN4CCN(C(=O)c5ccccc5Br)CC4)CC3)c2c1	Soluble	> 50 µM	> 1000 µM	163 µM	111 µM	–	–	–
COc1ccc(C(=O)N2CCN(CC(=O)N3CCN(CCCc4c[nH]c5ccc(F)cc45)CC3)CC2)cc1	Soluble	14.4 µM	133 µM	141 µM	161 µM	–	–	–
COc1ccc2[nH]cc(CCCN3CCN(C(=O)CN4CCN(C(=O)c5ccc(F)cc5)CC4)CC3)c2c1	Soluble	> 50 µM	> 1000 µM	> 200 µM	> 200 µM	–	–	–
COc1cccc(C(=O)N2CCN(CC(=O)N3CCN(CCCc4c[nH]c5ccc(OC)cc45)CC3)CC2)c1	Soluble	> 50 µM	> 1000 µM	> 200 µM	> 200 µM	–	–	–
O=C(CN1CCN(C(=O)c2ccc(Br)cc2)CC1)N1CCN(CCCc2c[nH]c3ccccc23)CC1	Soluble	35.7 µM	> 1000 µM	71.9 µM	59.3 µM	–	–	–
O=C(CN1CCN(C(=O)c2cccc(Cl)c2)CC1)N1CCN(CCCc2c[nH]c3ccc(F)cc23)CC1	Soluble	18.4 µM	149 µM	66.2 µM	59.8 µM	–	–	–
O=C(CN1CCN(C(=O)c2cccc(F)c2)CC1)N1CCN(CCCc2c[nH]c3ccccc23)CC1	Soluble	> 50 µM	> 1000 µM	182 µM	165 µM	–	–	–
COc1ccc2[nH]cc(CCCN3CCN(C(=O)CN4CCN(C(=O)c5cccc(F)c5)CC4)CC3)c2c1	Soluble	37.3 µM	> 1000 µM	> 200 µM	> 200 µM	–	–	–
O=C(CN1CCN(C(=O)c2ccccc2)CC1)N1CCN(CCCc2c[nH]c3ccccc23)CC1	Soluble	> 50 µM	> 1000 µM	> 200 µM	> 200 µM	–	–	–
O=C(CN1CCN(C(=O)c2ccc(Br)cc2)CC1)N1CCN(CCCc2c[nH]c3ccc(F)cc23)CC1	Soluble	39.4 µM	9.2 µM	60.5 µM	47.4 µM	–	–	–
Cc1ccc(C(=O)N2CCN(CC(=O)N3CCN(CCCc4c[nH]c5ccccc45)CC3)CC2)cc1	Soluble	29.4 µM	> 1000 µM	158 µM	> 200 µM	–	–	–
COc1ccc2[nH]cc(CCCN3CCN(C(=O)CN4CCN(C(=O)c5ccc(C)cc5)CC4)CC3)c2c1	Soluble	> 50 µM	> 1000 µM	147 µM	> 200 µM	–	–	–
Cc1ccc(C(=O)N2CCN(CC(=O)N3CCN(CCCc4c[nH]c5ccc(F)cc45)CC3)CC2)cc1	Soluble	3.6 µM	122 µM	141 µM	119 µM	–	–	–
O=C(CN1CCN(C(=O)c2cccc(Cl)c2)CC1)N1CCN(CCCc2c[nH]c3ccccc23)CC1	Soluble	32.4 µM	> 1000 µM	99.1 µM	120 µM	–	–	–
COc1cccc(C(=O)N2CCN(CC(=O)N3CCN(CCCc4c[nH]c5ccc(F)cc45)CC3)CC2)c1	Soluble	19.4 µM	83 µM	87.1 µM	79.4 µM	–	–	–
O=C(CN1CCN(C(=O)c2cccc(F)c2)CC1)N1CCN(CCCc2c[nH]c3ccc(F)cc23)CC1	Soluble	> 50 µM	69 µM	83 µM	169 µM	–	–	–
COc1ccc2[nH]cc(CCCN3CCN(C(=O)CN4CCN(C(=O)c5ccc(Cl)cc5)CC4)CC3)c2c1	Soluble	> 50 µM	> 1000 µM	117 µM	158 µM	–	–	–

SMILES	solubility [1]	IC50 (Acetylcholinesterase)	IC50 [2]	IC50 (HEK293)	IC50 (SH-SY5Y)	inhibition at 10 µM [3]	inhibition (N2a [4])	Activity (N2a [5])
CN(C)CCCC1(c2ccc(F)cc2)OCc2cc(C#N)ccc21 (stereo not drawn) [CITALOPRAM]	–	73.3 µM	–	> 200 µM	> 200 µM	–	–	–
COc1ccc2[nH]cc(CCCN3CCN(C(=O)CN4CCN(C(=O)c5cccc(Br)c5)CC4)CC3)c2c1	Soluble	> 50 µM	> 1000 µM	57 µM	105 µM	–	–	–
COc1ccc2[nH]cc(CCCN3CCN(C(=O)CN4CCN(C(=O)c5ccc(Br)cc5)CC4)CC3)c2c1	Soluble	> 50 µM	> 1000 µM	80.5 µM	150 µM	–	–	–
COc1ccc2[nH]cc(CCCN3CCN(C(=O)CN4CCN(C(=O)c5cccc(Cl)c5)CC4)CC3)c2c1	Soluble	> 50 µM	> 1000 µM	143 µM	> 200 µM	–	–	–
O=C(CN1CCN(C(=O)c2ccc(Cl)cc2)CC1)N1CCN(CCCc2c[nH]c3ccccc23)CC1	Soluble	35.2 µM	> 1000 µM	98.2 µM	139 µM	–	–	–
COc1ccc(C(=O)N2CCN(CC(=O)N3CCN(CCCc4c[nH]c5ccccc45)CC3)CC2)cc1	Soluble	25.1 µM	> 1000 µM	156 µM	148 µM	–	–	–
O=C(CN1CCN(C(=O)c2ccccc2)CC1)N1CCN(CCCc2c[nH]c3ccc(F)cc23)CC1	Soluble	> 50 µM	320 µM	148 µM	146 µM	–	–	–
O=C(CN1CCN(C(=O)c2ccc(F)cc2)CC1)N1CCN(CCCc2c[nH]c3ccccc23)CC1	Soluble	39.4 µM	> 1000 µM	141 µM	188 µM	–	–	–
O=C(CN1CCN(C(=O)c2ccc(F)cc2)CC1)N1CCN(CCCc2c[nH]c3ccc(F)cc23)CC1	Soluble	3.4 µM	212 µM	102 µM	121 µM	–	–	–
O=C(CN1CCN(C(=O)c2ccc(Cl)cc2)CC1)N1CCN(CCCc2c[nH]c3ccc(F)cc23)CC1	Soluble	22.3 µM	546 µM	44.5 µM	125 µM	–	–	–
COc1cc2c(cc1OC)C(=O)C(CC1CCN(Cc3ccccc3)CC1)C2 (stereo not drawn) [DONEPEZIL]	–	–	> 1000 µM	–	–	–	–	–
O=C(CN1CCN(C(=O)c2cccc(Br)c2)CC1)N1CCN(CCCc2c[nH]c3ccccc23)CC1	Soluble	23 µM	> 1000 µM	80.7 µM	80.5 µM	50%	Active	inactive
O=C(CN1CCN(C(=O)c2ccccc2F)CC1)N1CCN(CCCc2c[nH]c3ccccc23)CC1	Soluble	20.2 µM	> 1000 µM	133 µM	82.6 µM	–	–	–
COc1cccc(C(=O)N2CCN(CC(=O)N3CCN(CCCc4c[nH]c5ccccc45)CC3)CC2)c1	Soluble	> 50 µM	> 1000 µM	143 µM	> 200 µM	–	–	–
O=C(CN1CCN(C(=O)c2ccccc2Br)CC1)N1CCN(CCCc2c[nH]c3ccc(F)cc23)CC1	Soluble	33.3 µM	1.9 µM	77.1 µM	79.1 µM	–	–	–
O=C(CN1CCN(C(=O)c2cccc(Br)c2)CC1)N1CCN(CCCc2c[nH]c3ccc(F)cc23)CC1	Soluble	37.3 µM	181 µM	40.6 µM	71.6 µM	–	–	–
COc1ccc(C(=O)N2CCN(CC(=O)N3CCN(CCCc4c[nH]c5ccc(OC)cc45)CC3)CC2)cc1	Soluble	> 50 µM	> 1000 µM	190 µM	190 µM	–	–	–
